Measured values as given in the supplement of paper PMC10307832.

What was measured:
Test in all cases: relative viability (nuclei count vs DMSO), 5 days (fraction); higher = more cells survive
[1] = compound: CCc1cnn2c(NCc3ccc[n+]([O-])c3)cc(N3CCCC[C@H]3CCO)nc12 [Dinaciclib] + CC(=O)c1c(C)c2cnc(Nc3ccc(N4CCNCC4)cn3)nc2n(C2CCCC2)c1=O [Palbociclib] (partner 0.5 µM)
In short: (§1)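 One day after seeding in 1536-well plates, lung cancer cell lines were dosed by pin tool. Dosing was either single-drug or a fixed anchor-drug dose plus five library-drug doses (not always all listed) in √10 steps. After 5 days, nuclei were stained in one fix-and-stain step and counted on 4× images, and relative viability is the nuclei count of treated wells over that of vehicle wells, given as the median of duplicate plates.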

[2] = compound: CCc1cnn2c(NCc3ccc[n+]([O-])c3)cc(N3CCCC[C@H]3CCO)nc12 [Dinaciclib] + CS(=O)(=O)CCNCc1ccc(-c2ccc3ncnc(Nc4ccc(OCc5cccc(F)c5)c(Cl)c4)c3c2)o1 [Lapatinib] (partner 2 µM)
In short: as §1

[3] = compound: CCc1cnn2c(NCc3ccc[n+]([O-])c3)cc(N3CCCC[C@H]3CCO)nc12 [Dinaciclib] + Nc1nc2[nH]cc(CCc3ccc(C(=O)N[C@@H](CCC(=O)O)C(=O)O)cc3)c2c(=O)[nH]1 [Pemetrexed] (partner 0.2 µM)
In short: as §1

[4] = compound: CCc1cnn2c(NCc3ccc[n+]([O-])c3)cc(N3CCCC[C@H]3CCO)nc12 [Dinaciclib] + CS(=O)(=O)N1CCN(Cc2cc3nc(-c4cccc5[nH]ncc45)nc(N4CCOCC4)c3s2)CC1 [Pictilisib] (partner 1 µM)
In short: as §1

[5] = compound: CCc1cnn2c(NCc3ccc[n+]([O-])c3)cc(N3CCCC[C@H]3CCO)nc12 [Dinaciclib] + CC(C)C[C@H](NC(=O)[C@H](Cc1ccccc1)NC(=O)c1cnccn1)B(O)O [Bortezomib] (partner 0.002 µM)
In short: as §1

| Cell Line | relative viability ([1]; first compound 0.009487 µM) | relative viability ([1]; first compound 0.03 µM) | relative viability ([1]; first compound 0.09487 µM) | relative viability ([1]; first compound 0.3 µM) | relative viability ([2]; first compound 0.009487 µM) | relative viability ([2]; first compound 0.03 µM) | relative viability ([2]; first compound 0.09487 µM) | relative viability ([2]; first compound 0.3 µM) | relative viability ([3]; first compound 0.009487 µM) | relative viability ([3]; first compound 0.03 µM) | relative viability ([3]; first compound 0.09487 µM) | relative viability ([3]; first compound 0.3 µM) | relative viability ([4]; first compound 0.009487 µM) | relative viability ([4]; first compound 0.03 µM) | relative viability ([4]; first compound 0.09487 µM) | relative viability ([4]; first compound 0.3 µM) | relative viability ([5]; first compound 0.009487 µM) | relative viability ([5]; first compound 0.03 µM) | relative viability ([5]; first compound 0.09487 µM) | relative viability ([5]; first compound 0.3 µM) |
| --- | --- | --- | --- | --- | --- | --- | --- | --- | --- | --- | --- | --- | --- | --- | --- | --- | --- | --- | --- | --- |
| HCC-366 | 0.272 | 0.0382 | 0.0205 | 0.0359 | 0.557 | 0.0225 | 0.0184 | 0.0226 | 0.171 | 0.0414 | 0.0345 | 0.0329 | 0.196 | 0.0396 | 0.0372 | 0.044 | 0.779 | 0.0262 | 0.0219 | 0.0175 |
| HCC-827 | 0.387 | 0.169 | 0.14 | 0.121 | 0.191 | 0.183 | 0.149 | 0.132 | 0.27 | 0.129 | 0.122 | 0.13 | 0.998 | 0.446 | 0.242 | 0.223 | 0.986 | 0.746 | 0.213 | 0.178 |
| HOP-62 | 0.465 | 0.187 | 0.071 | 0.0775 | 0.917 | 0.281 | 0.0612 | 0.0566 | 0.255 | 0.0991 | 0.094 | 0.0662 | 0.583 | 0.092 | 0.0651 | 0.0405 | 0.643 | 0.0795 | 0.0423 | 0.0609 |
| LC-2-ad | 0.411 | 0.204 | 0.114 | 0.136 | 0.9 | 0.0784 | 0.058 | 0.0576 | 0.28 | 0.158 | 0.14 | 0.131 | 0.305 | 0.071 | 0.0698 | 0.0506 | 1.05 | 0.0825 | 0.0622 | 0.0691 |
| LCLC-97TM1 | 0.18 | 0.0731 | 0.0753 | 0.0729 | 0.662 | 0.173 | 0.0769 | 0.0958 | 0.152 | 0.0671 | 0.0619 | 0.062 | 0.209 | 0.116 | 0.109 | 0.0963 | 0.0824 | 0.0484 | 0.0476 | 0.0667 |
| LCLC-103H | 0.402 | 0.441 | 0.208 | 0.192 | – | – | – | – | 0.465 | 0.566 | 0.223 | 0.217 | 0.572 | 0.463 | 0.147 | 0.143 | 1.04 | 0.998 | 0.451 | 0.108 |
| LK-2 | 0.543 | 0.109 | 0.107 | 0.0837 | 0.712 | 0.182 | 0.102 | 0.176 | 0.38 | 0.0867 | 0.0811 | 0.0749 | 0.358 | 0.23 | 0.21 | 0.214 | – | – | – | – |
| NCI-H358 | 0.142 | 0.095 | 0.0882 | 0.096 | 0.341 | 0.216 | 0.196 | 0.188 | 0.186 | 0.108 | 0.0948 | 0.0955 | 0.272 | 0.185 | 0.174 | 0.176 | – | – | – | – |
| NCI-H441 | 0.197 | 0.148 | 0.125 | 0.113 | – | – | – | – | 0.263 | 0.168 | 0.12 | 0.128 | 0.589 | 0.126 | 0.111 | 0.115 | 0.45 | 0.158 | 0.2 | 0.143 |
| NCI-H522 | 1.19 | 0.855 | 0.316 | 0.255 | – | – | – | – | 1.32 | 1.14 | 0.371 | 0.25 | – | – | – | – | – | – | – | – |
| NCI-H596 | – | – | – | – | 0.943 | 0.341 | 0.187 | 0.16 | 0.404 | 0.396 | 0.24 | 0.225 | 0.418 | 0.245 | 0.157 | 0.106 | 1.22 | 0.563 | 0.263 | 0.239 |
| NCI-H727 | 0.633 | 0.38 | 0.361 | 0.383 | 0.644 | 0.238 | 0.222 | 0.228 | – | – | – | – | 0.297 | 0.173 | 0.196 | 0.134 | 0.869 | 0.231 | 0.217 | 0.238 |
| NCI-H1395 | 0.596 | 0.311 | 0.248 | 0.248 | 0.506 | 0.314 | 0.292 | 0.276 | 0.505 | 0.231 | 0.213 | 0.26 | 0.483 | 0.248 | 0.269 | 0.248 | – | – | – | – |
| NCI-H1703 | – | – | – | – | 1.01 | 0.133 | 0.114 | 0.134 | – | – | – | – | 0.26 | 0.154 | 0.127 | 0.133 | 0.366 | 0.122 | 0.132 | 0.114 |
| NCI-H1793 | 0.251 | 0.168 | 0.131 | 0.135 | 0.389 | 0.112 | 0.18 | 0.147 | 0.63 | 0.139 | 0.142 | 0.13 | 0.288 | 0.177 | 0.145 | 0.2 | – | – | – | – |
| NCI-H1944 | 0.39 | 0.13 | 0.147 | 0.123 | 0.936 | 0.169 | 0.143 | 0.147 | 0.712 | 0.119 | 0.14 | 0.136 | 0.4 | 0.172 | 0.168 | 0.177 | – | – | – | – |
| NCI-H2170 | 0.387 | 0.122 | 0.103 | 0.117 | 0.273 | 0.197 | 0.186 | 0.175 | 0.292 | 0.133 | 0.125 | 0.119 | 0.27 | 0.151 | 0.163 | 0.196 | – | – | – | – |
| NCI-H2342 | 0.475 | 0.575 | 0.447 | 0.271 | – | – | – | – | 0.851 | 0.56 | 0.3 | 0.274 | – | – | – | – | – | – | – | – |
| SK-MES-1 | 0.327 | 0.179 | 0.18 | 0.154 | 0.5 | 0.355 | 0.16 | 0.151 | 0.799 | 0.192 | 0.179 | 0.168 | 0.381 | 0.24 | 0.128 | 0.128 | – | – | – | – |
